Here are results for one molecule from publication PMC5715351, “Cysteine and histidine residues are involved in Escherichia coli Tn21 MerE methylmercury transport” (FEBS Open Bio, 2017).

This test has as its target MerE (Shigella flexneri, UniProt Q7AKA4). The settings on record: 5 uM compound, LB broth with 100 ug/mL chloramphenicol and 100 uM EDTA, 37 °C.

Molecules are shown by their SMILES.

MerE, sequence (Q7AKA4 whole entry): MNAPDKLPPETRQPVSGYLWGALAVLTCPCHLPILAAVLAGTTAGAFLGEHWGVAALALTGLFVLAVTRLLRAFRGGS

In the case of `[CH3][Hg][Cl]` [CH3Hg(I)], the “uptake of 14C-labelled compound by E. coli XL1-Blue cells, filtration and scinti” value was “cells with pE4 took up significantly more CH3Hg(I) than control cells”.
